According to patent US20150031760A1, “PHARMACEUTICAL COMPOSITION FOR PREVENTING OR TREATING NERVOUS SYSTEM DISORDERS COMPRISING SULFURETIN OR PHARMACEUTICALLY ACCEPTABLE SALT THEREOF” (Research and Business Foundation SUNGKYUNKWAN UNIVERSITY, priority 2010, published 2015):
Like-named read-outs stand apart in the source and are kept apart here.

Legend:
[1] = system: SH-SY5Y cells; assay: MTT assay, amyloid beta25-35-induced cell death; assay type: cell-based, human; conditions: pretreated with sulfuretin at 2.5, 5, 10 and 20 μM for 30 minutes, then 20 μM amyloid beta25-35 for 24 hours (p<0.05 and p<0.001)
Protocol: For the experiments shown in FIGS. 11 to 13, SH-SY5Y and stable swedish APP mutant SH-SY5Y cells were grown in DMEM supplemented with 10% heat-inactivated FBS and 0.1% penicillin/streptomycin at 37° C. in a humidified atmosphere of 5% CO2 and 95% air. Cells were fed every three days and sub-cultured once they reached 80-90% confluency in […] cell culture dishes. Amyloid beta25-35 was prepared as a 20 mM stock immediately before use and diluted in PBS to the indicated final concentration. Prior to use, amyloid beta25-35 was dissolved in sterilized distilled water and was aggregated at 37° C. for five days. The test compounds were dissolved in DMSO and the stock solutions were added directly to the culture media to a final concentration of 0.1% (v/v) DMSO.
First of all, MTT assay was performed to determine the neuroprotective effects of sulfuretin on amyloid beta25-35-induced cell death. […] The dark-blue formazan crystals formed in intact cells were dissolved in DMSO, and the absorbance at 540 nm was measured with a microplate reader (SpectraMax 250, Molecular Device, Sunnyvale, Calif., USA). The results were expressed as the percentage of MIT reduction relative to the absorbance of control cells.

[2] = system: SH-SY5Y and PC12 cells; assay: MTT (cell viability) test, SNP-induced cell death; assay type: cell-based
[3] = system: phospho-p38; assay: Western blot, phospho-p38 expression; assay type: cell-based, human; conditions: SH-SY5Y cells
Protocol: (§1) The incubator was maintained at a temperature of 37° C., and a mixed gas of 95% air and 5% CO2 was continuously supplied thereto to provide suitable conditions for cell culture. The cells were cultured in a 6-well plate or a 96-well plate at each of densities of 1×10^6 and 2×10^4 cells/well 24 hours before the experiment. […] Sulfuretin was used in ethanol and used at a final concentration of 0.1% or less.
In order to identify the effect of sulfuretin on the expression of proteins related to dementia, Alzheimer's disease, Parkinson's disease and strokes, a Western blot test was carried out.
After 24 hours, the supernatant of each well was collected and centrifuged at 400 g for 3 minutes, and the cells were washed with cold PBS and lysed with 100 μl of T-PER lysis buffer (Thermo, USA) for 30 minutes. The lysates were centrifuged at 10000 g at 4° C. for 15 minutes, and the supernatants were stored at […] until use as test samples. Proteins were quantitatively analyzed using a BCA assay kit (Thermo, USA) and separated within 8.5-12% SDS gel and then transferred to PVDF membranes. To examine the expression of the proteins, the development of fluorescence was analyzed by enhanced chemiluminescence (ECL). Specifically, the membrane was blocked with 5% skimmed non-fat milk for 1 hour and labeled with the primary antibodies, PARP, caspase-3, phospho-p38, phospho-JNK and β-actin at 4° C. overnight. Then, the membrane was washed three times with Tris-tween buffered saline (TTBS), and then labeled with horseradish peroxidase (HRP)-conjugated anti-rabbit and anti-mouse secondary antibodies at room temperature for 1 hour. Then, the membrane was washed five times with TTBS for 10 minutes. The washed film was developed by ECL using x-ray films, and concentrations were quantitatively analyzed using quantitative analysis program (Fujifilm, Japan).

[4] = system: Tau; assay: Western blot, amyloid beta25-35-induced hyperphosphorylation of Tau; assay type: cell-based, human; conditions: SH-SY5Y cells; pretreatment with sulfuretin at 20 μM; 20 μM amyloid beta25-35 (p<0.01)
[5] = system: SH-SY5Y cells; assay: MTT (cell viability) test, induced cell death in SH-SY5Y cells; conditions: Homo sapiens, SH-SY5Y; for viability at 0.1 µg/mL: sulfuretin 0.1 μg/ml; for viability at 0.5 µg/mL: sulfuretin 0.5 μg/ml; for viability at 1 µg/mL: sulfuretin 1 μg/ml; for viability at 5 µg/mL: sulfuretin 5 μg/ml
Protocol: as §1
To measure cell viability, an MTT reduction assay was used. An MTT solution was added to each well of the 96-well plate (in which the cells have been cultured) to a final concentration of 0.5 mg/ml. The plate was incubated in an incubator for 2 hours, and the medium and the MIT solution were removed, after which DMSO was added thereto and stirred. When DMSO was completely dissolved, the UV absorbance at 540 nm was measured using a microplate reader (Molecular device, USA).
The measured absorbance was substituted into the following equation to calculate cell viability:
Cell viability (%)=[(O.D. of control−O.D. of test group)/O.D. of control]×100

[6] = read-out: cell viability, 6-hydroxydopamine-induced cell death
[7] = read-out: cell viability, beta-amyloid-induced cell death
[8] = read-out: cell viability, hydrogen peroxide-induced cell death

O=C1/C(=C/c2ccc(O)c(O)c2)Oc2cc(O)ccc21 [sulfuretin]
cell viability (MTT reduction) [1]: significantly increased
viability at 0.1 µg/mL ([2]; sulfuretin 0.1 μg/ml): ≥ 44%
viability at 0.5 µg/mL ([2]; sulfuretin 0.5 μg/ml): ≥ 56%
viability at 1 µg/mL ([2]; sulfuretin 1 μg/ml): ≥ 64%
viability at 5 µg/mL ([2]; sulfuretin 5 μg/ml): ≥ 163%
phospho-p38 expression ([3]; hydrogen peroxide + sulfuretin 0.1 μg/ml): ≤ 157%
phospho-p38 expression ([3]; hydrogen peroxide + sulfuretin 0.5 μg/ml): ≤ 133%
phospho-p38 expression ([3]; hydrogen peroxide + sulfuretin 1 μg/ml): ≤ 53%
amyloid beta25-35-mediated increases in phosphorylation of Tau proteins [4]: significantly inhibited
viability at 0.1 µg/mL [5, 6]: ≥ 87%
viability at 0.5 µg/mL [5, 6]: ≥ 97%
viability at 1 µg/mL [5, 6]: ≥ 112%
viability at 5 µg/mL [5, 6]: ≥ 140%
viability at 0.1 µg/mL [5, 7]: ≥ 58%
viability at 0.5 µg/mL [5, 7]: ≥ 64%
viability at 1 µg/mL [5, 7]: ≥ 80%
viability at 5 µg/mL [5, 7]: ≥ 97%
viability at 0.1 µg/mL [5, 8]: ≥ 74%
viability at 0.5 µg/mL [5, 8]: ≥ 97%
viability at 1 µg/mL [5, 8]: ≥ 119%
viability at 5 µg/mL [5, 8]: ≥ 103%
